Consider one compound from BindingDB's records for doi:10.1111/j.1476-5381.1994.tb13148.x (Smithkline Beecham Pharmaceuticals, 1994).

Some targets named below: D(3) dopamine receptor (Homo sapiens, UniProt P35462); D(2) dopamine receptor (Homo sapiens, UniProt P14416); D(1A) dopamine receptor (Homo sapiens, UniProt P21728).
Assay [1] concerns the target 5-hydroxytryptamine receptor 2A (Homo sapiens, UniProt P28223).
Assay [2] has as its target 5-hydroxytryptamine receptor 1E (Homo sapiens, UniProt P28566).
For assay [3], the target named is Beta-2 adrenergic receptor (Homo sapiens, UniProt P07550).
Chain of Beta-2 adrenergic receptor (P07550 whole entry): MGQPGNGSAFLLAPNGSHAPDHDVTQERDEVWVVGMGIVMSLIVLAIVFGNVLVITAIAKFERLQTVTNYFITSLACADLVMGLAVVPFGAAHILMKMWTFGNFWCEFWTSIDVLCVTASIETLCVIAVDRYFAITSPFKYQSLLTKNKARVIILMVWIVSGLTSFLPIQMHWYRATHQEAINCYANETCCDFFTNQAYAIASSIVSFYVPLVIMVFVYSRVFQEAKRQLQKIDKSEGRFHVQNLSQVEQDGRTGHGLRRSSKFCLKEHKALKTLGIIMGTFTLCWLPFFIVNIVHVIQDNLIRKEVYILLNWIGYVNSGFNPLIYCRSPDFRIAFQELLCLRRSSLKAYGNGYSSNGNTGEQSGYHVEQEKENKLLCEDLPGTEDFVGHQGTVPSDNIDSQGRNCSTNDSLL
The target in another assay is T1, Adenosine receptor A1 (Rattus norvegicus, UniProt P25099).
T1 sequence (P25099 whole entry): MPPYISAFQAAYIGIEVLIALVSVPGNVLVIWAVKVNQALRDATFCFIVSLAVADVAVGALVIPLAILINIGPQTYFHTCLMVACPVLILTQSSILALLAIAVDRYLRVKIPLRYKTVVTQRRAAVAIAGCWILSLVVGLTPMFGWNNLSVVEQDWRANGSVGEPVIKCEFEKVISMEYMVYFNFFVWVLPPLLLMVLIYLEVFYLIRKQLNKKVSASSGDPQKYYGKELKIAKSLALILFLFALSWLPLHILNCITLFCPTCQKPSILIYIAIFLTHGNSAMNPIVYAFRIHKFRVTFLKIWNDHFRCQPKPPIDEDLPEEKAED

Assay [4] addresses Gamma-aminobutyric acid receptor subunit alpha-1 (Rattus norvegicus, UniProt P62813).
Assay [5] concerns the target 5-hydroxytryptamine receptor 1D (Cavia porcellus, UniProt Q60484).
In assay [6] the target is T2, 5-hydroxytryptamine receptor 2C (Sus scrofa, UniProt G7ZKZ7).
T2 sequence (G7ZKZ7 whole entry): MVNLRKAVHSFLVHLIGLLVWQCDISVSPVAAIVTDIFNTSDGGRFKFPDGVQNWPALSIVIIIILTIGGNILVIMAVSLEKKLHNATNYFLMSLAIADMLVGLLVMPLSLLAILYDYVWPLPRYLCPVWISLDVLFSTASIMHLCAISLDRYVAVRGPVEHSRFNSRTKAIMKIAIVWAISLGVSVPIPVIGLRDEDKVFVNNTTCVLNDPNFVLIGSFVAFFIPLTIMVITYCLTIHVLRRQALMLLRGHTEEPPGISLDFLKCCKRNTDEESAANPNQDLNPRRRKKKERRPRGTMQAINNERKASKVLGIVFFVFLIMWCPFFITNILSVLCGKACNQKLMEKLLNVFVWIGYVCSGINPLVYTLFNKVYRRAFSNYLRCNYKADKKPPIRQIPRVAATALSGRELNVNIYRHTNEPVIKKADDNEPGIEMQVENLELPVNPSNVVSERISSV

Assay [7] has as its target T3, 5-hydroxytryptamine receptor 3A (Rattus norvegicus, UniProt P35563).
T3 sequence (P35563 whole entry): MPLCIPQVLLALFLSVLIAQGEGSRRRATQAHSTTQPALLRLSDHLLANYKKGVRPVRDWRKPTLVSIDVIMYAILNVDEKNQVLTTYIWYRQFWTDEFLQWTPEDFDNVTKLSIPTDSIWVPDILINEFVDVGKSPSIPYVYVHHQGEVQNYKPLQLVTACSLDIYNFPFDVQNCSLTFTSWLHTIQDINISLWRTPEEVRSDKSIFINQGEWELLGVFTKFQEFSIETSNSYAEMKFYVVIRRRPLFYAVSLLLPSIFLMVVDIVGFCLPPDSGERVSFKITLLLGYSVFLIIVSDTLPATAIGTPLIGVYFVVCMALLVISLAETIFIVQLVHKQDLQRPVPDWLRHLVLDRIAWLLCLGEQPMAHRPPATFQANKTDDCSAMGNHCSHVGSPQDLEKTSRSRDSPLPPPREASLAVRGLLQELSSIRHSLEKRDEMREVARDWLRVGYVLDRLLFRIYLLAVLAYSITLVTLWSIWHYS

In assay [8] the target is T4, Solute carrier family 22 member 1 (Rattus norvegicus, UniProt Q63089).
T4 sequence (Q63089 whole entry): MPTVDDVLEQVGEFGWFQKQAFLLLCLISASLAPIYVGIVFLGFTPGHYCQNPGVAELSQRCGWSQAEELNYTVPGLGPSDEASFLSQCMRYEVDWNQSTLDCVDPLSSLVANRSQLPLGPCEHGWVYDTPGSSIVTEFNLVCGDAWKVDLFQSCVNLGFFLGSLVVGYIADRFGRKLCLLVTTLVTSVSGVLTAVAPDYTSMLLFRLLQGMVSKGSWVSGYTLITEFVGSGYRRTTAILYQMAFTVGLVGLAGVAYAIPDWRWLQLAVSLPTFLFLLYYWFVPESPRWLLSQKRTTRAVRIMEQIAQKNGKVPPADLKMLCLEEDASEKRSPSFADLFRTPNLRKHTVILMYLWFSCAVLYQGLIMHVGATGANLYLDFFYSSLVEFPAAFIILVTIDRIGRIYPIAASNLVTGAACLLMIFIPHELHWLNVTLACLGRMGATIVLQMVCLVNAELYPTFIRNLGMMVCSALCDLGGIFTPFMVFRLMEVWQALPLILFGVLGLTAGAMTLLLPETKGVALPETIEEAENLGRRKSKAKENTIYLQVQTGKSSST

Assay [9] addresses T5, Adrenergic alpha2 receptor (Mesocricetus auratus, UniProt Q60533).
T5 sequence (Q60533 whole entry): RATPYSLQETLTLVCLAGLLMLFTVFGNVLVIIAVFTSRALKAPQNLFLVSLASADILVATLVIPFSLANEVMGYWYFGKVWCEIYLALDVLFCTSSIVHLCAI

In assay [10] the target is Beta-1 adrenergic receptor (Homo sapiens, UniProt P08588).
Chain of Beta-1 adrenergic receptor (P08588 whole entry): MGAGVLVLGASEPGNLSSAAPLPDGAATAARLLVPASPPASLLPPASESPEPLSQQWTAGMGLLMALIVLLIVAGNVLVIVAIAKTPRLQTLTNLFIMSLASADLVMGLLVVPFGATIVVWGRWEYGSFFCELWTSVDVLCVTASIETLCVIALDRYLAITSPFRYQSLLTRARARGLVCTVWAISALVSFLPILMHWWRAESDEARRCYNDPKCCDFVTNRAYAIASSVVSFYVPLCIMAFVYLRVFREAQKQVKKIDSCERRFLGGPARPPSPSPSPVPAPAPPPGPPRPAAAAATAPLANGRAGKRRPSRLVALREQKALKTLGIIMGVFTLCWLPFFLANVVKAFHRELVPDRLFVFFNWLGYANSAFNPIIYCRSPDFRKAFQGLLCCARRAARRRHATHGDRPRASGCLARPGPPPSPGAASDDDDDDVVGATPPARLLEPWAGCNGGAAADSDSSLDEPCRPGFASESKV
Assay [11] has as its target T6, Gamma-aminobutyric acid receptor subunit alpha-1 (Homo sapiens, UniProt P14867).
T6 sequence (P14867 whole entry): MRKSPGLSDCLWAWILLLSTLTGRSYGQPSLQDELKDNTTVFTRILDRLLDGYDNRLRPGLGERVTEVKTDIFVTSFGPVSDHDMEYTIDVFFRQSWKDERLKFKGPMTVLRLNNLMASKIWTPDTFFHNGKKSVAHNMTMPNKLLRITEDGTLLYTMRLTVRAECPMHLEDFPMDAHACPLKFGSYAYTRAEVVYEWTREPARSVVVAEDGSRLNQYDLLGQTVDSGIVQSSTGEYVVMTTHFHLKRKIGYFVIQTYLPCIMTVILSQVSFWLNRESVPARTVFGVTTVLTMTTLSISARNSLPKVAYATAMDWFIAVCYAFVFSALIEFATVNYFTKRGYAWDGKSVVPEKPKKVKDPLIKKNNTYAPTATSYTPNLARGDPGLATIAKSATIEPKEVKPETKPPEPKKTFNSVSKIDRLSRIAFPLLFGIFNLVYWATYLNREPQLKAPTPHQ

Some results are limits rather than exact numbers.

Chain of 5-hydroxytryptamine receptor 1D (Q60484 whole entry): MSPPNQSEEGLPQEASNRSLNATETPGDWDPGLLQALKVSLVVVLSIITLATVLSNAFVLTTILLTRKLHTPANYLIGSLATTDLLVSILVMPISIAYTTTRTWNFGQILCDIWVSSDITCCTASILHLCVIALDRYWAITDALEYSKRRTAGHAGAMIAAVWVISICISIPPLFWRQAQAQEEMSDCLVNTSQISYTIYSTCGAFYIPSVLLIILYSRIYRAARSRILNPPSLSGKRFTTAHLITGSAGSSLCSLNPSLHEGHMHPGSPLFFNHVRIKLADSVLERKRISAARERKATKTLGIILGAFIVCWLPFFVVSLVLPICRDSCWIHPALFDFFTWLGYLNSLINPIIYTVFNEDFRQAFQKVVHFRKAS
Chain of 5-hydroxytryptamine receptor 2A (P28223 whole entry): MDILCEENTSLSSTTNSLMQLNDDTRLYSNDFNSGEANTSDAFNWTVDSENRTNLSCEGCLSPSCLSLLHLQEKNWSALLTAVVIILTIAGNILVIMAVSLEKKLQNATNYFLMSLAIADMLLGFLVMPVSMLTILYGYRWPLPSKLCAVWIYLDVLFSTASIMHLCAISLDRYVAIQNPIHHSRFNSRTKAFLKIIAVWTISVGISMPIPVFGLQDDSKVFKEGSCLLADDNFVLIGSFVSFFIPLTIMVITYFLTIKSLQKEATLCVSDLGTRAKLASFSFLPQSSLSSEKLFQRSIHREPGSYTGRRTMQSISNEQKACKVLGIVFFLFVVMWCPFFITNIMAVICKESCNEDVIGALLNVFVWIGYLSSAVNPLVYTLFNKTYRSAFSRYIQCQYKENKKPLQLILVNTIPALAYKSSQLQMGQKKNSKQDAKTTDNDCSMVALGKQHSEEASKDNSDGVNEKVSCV
Chain of D(3) dopamine receptor (P35462 as listed by the source): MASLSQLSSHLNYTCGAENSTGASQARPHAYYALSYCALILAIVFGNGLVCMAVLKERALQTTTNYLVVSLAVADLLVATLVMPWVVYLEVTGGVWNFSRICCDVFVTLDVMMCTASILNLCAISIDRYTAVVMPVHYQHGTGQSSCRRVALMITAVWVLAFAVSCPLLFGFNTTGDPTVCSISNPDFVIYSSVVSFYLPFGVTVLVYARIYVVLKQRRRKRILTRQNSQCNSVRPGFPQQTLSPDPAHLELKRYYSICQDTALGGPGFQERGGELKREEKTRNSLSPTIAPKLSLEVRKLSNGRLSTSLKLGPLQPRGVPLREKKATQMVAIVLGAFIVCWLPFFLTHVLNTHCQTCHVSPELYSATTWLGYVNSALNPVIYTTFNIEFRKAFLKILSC
Chain of D(2) dopamine receptor (P14416 whole entry): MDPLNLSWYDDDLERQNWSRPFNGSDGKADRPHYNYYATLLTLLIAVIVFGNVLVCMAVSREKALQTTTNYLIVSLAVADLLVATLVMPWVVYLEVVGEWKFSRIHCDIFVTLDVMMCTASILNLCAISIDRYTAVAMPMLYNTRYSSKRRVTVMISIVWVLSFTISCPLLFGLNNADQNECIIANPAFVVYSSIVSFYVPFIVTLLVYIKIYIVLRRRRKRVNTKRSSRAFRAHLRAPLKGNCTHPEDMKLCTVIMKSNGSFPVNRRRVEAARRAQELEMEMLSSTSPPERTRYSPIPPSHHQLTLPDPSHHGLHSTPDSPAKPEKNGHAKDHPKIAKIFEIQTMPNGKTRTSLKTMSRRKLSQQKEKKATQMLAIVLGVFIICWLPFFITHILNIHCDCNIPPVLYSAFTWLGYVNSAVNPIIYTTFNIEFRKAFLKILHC
Chain of D(1A) dopamine receptor (P21728 whole entry): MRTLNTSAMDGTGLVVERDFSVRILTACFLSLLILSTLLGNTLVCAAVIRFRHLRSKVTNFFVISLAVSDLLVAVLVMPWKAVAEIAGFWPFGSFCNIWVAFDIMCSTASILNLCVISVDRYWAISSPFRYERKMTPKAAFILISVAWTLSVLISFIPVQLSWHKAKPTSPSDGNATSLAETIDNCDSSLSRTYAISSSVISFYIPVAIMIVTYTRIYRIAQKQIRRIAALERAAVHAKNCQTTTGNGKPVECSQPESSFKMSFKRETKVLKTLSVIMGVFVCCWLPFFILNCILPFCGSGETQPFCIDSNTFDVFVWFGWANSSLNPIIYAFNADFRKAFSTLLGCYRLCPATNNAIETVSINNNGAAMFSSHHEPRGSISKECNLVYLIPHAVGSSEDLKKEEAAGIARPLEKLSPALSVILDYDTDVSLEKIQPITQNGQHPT
Chain of 5-hydroxytryptamine receptor 1E (P28566 whole entry): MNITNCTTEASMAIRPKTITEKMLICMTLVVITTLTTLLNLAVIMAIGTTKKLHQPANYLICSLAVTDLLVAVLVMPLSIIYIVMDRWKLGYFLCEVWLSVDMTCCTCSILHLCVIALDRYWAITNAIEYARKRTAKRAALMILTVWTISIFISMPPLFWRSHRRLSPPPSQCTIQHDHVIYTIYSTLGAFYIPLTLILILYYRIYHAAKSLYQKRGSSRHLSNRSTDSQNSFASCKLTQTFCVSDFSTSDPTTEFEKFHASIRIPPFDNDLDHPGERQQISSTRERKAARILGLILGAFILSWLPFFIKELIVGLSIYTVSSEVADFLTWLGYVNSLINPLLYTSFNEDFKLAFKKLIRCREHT
Chain of Gamma-aminobutyric acid receptor subunit alpha-1 (Rattus norvegicus, UniProt P62813) (P62813 whole entry): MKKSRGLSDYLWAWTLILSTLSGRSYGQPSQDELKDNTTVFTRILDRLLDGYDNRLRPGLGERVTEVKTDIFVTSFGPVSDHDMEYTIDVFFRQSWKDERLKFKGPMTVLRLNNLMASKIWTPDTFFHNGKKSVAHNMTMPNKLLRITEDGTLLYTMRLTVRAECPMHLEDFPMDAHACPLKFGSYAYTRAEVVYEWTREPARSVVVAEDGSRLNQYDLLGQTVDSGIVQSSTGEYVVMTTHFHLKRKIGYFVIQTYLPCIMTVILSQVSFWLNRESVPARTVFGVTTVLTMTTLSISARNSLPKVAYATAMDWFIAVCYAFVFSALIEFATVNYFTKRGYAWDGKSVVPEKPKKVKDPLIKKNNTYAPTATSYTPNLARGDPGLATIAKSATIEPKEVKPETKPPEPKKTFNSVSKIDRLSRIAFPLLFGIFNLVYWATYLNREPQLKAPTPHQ

For orientation: Ki means the equilibrium dissociation constant of an inhibitor or competing ligand from its target. A higher Ki goes with lower affinity. With `CCCCN1CCC(COC(=O)c2cc(Cl)c(N)c3c2OCCO3)CC1` [CAS_121881], the Ki at D(3) dopamine receptor was 1000 nM; in assay [1], 1000 nM; in [2] it was > 10 µM; in [3] it was 1000 nM; on Adenosine receptor A1, > 10 µM; on D(2) dopamine receptor it was > 10 µM. Moreover, the Ki is 1000 nM at D(1A) dopamine receptor; > 10 µM in assay [4]; > 10 µM in [5]; 126 nM in [6]; 398 nM in assay [7]; 1000 nM in assay [8]. The results for the inhibitory constant (Ki) in [9], in assay [10] and in assay [11] were 1000 nM, 1000 nM and > 10 µM, respectively.
